In publication PMC6520918, “Antiproliferative Effects of Hop-derived Prenylflavonoids and Their Influence on the Efficacy of Oxaliplatine, 5-fluorouracil and Irinotecan in Human ColorectalC Cells” (Nutrients, 2019):

Columns and labels:
SW480 cells = assay: Neutral red uptake (NRU) cell viability assay, 72 h; type: cell-based, human; conditions: SW480, 72 h of exposition
Source text: (§1) The prenylflavonoids and NAR were pre-dissolved in DMSO, while 5-FU, IRT and OxPt were pre-dissolved in distilled water. […] During screening for antiproliferative effects, SW480, SW620, and CaCo-2 were exposed to various concentrations of individual compounds in culture medium: XH, IXH, 6-PN and 8-PN (1–100 μmol/L), NAR (1–200 µmol/L), 5-FU and IRT (0.1–100 µmol/L), and OxPt (0.1–25 µmol/L). The cells cultured in medium with 0.1% DMSO or 0.2% DMSO (for 8-PN only) were used as untreated control samples. In the case of OxPt, the untreated control sample contained cells cultured in medium only. The cells treated with 10% DMSO served as a positive control. Neutral red uptake (NRU) assay was used to determine the number of viable cells after 72 h of exposition. The effect of prenylflavonoids and NAR on 5-FU, IRT or OxPt efficacy was evaluated using CalcuSyn (ver. 1.1) software.
(§2) In the NRU assay, the cells were cultured in 96-well plates (SW480 and SW620: 2500 cells/well; CaCo-2 cells: 200 cells/well) and exposed to the tested compounds for 72 h. Thereafter, the medium was removed and 100 μL of neutral red-containing medium was added into each well and the plates were incubated at 37 °C for an additional 3 h. Then the cells were washed with 100 μL of PBS and fixed in a solution of 0.5% formaldehyde/1% calcium chloride for 15 minutes. The neutral red dye was extracted from the viable cells with a solvent (50% ethanol/1% acetic acid) by shaking for 30 min at room temperature. The absorbance of solubilized dye was measured using the spectrophotometer Infinite M200 (Tecan, Männedorf, Switzerland) at 540 nm. Each sample was assayed in six parallels and three independent experiments were performed. The viabilities of treated cells were expressed as a percentage of untreated controls (100%).
(§3) All calculations were done using Microsoft Excel and GraphPad Prism 7.03 (GraphPad Software, La Jolla, CA, USA). All values were expressed as mean ± S.D. of a given number of experiments. Statistical significance (evaluated using a one-way ANOVA with Dunett’s test) was acceptable to a level of p < 0.05. The concentration inducing a 50% decrease of cell viability as compared to control (IC50) was calculated using GraphPad Prism 7.03—nonlinear regression.

SW620 cells [1] = assay: as above; type: cell-based, human
Source text: as §1, §2, §3

[2] = tested on: differentiated CaCo-2 cells; assay: as above; type: cell-based; conditions: Homo sapiens, CaCo-2 differentiated, 72 h of exposition
Procedure: (§4) The CaCo-2 cell line was cultured in EMEM medium supplemented with 10% heat-inactivated FBS, 1% non-essential amino acids, 1% glutamine, and 0.5% penicillin/streptomycin. The cells were grown in 96-well plates for 3 (proliferating cells) and 21 (differentiated cells) days in a humidified atmosphere containing 5% CO2 at 37 °C and subcultured every 3 days.
as §1, §2, §3

[3] = tested on: proliferating CaCo-2 cells; assay: as above; type: cell-based; conditions: Homo sapiens, CaCo-2 proliferating, 72 h of exposition
Procedure: as §4, §1, §2, §3

SW620 cells [4] = assay: Cellular ROS formation (H2DCF-DA oxidation); type: cell-based, human; conditions: for ROS production vs control: SW620, compound alone at its IC50, 0.5-24 h incubation
Procedure: To assess ROS generation in SW620 cells, a measurement of 2′,7′-dichlorodihydrofluorescein-diacetate (H2DCF-DA) oxidation was used. Cells (seeded in a 96-well plate at a density of 2500 cells/well) were washed with PBS buffer and incubated with 100 μL of 5 μM H2DCF-DA in Hank’s balanced salt solution (HBSS). […] Finally, fluorescence intensity was measured at the excitation and emission wavelengths of 485 nm/525 nm for 50 min at 37 °C using the microplate reader Infinite M200 (Tecan, Männedorf, Switzerland). The cells incubated in HBSS with DMSO only (as a solvent) were used as untreated control samples, while those incubated in the presence of 3% H2O2 were used as a positive control.
As is generally accepted, cancer cells generate more ROS than do normal cells and at the same time, they are sensitive to the effect of agents which augment oxidative stress and thus push these stressed cells beyond their limit. Therefore, the pro-oxidative effect of prenylflavonoids and NAR was tested in the SW620 cells in order to elucidate the observed antiproliferative effects of these compounds. […] ROS production was measured in the SW620 cells incubated with prenylflavonoids or NAR at a concentration equal to their IC50 using a DCFH-DA assay. ROS production was monitored during 24-hour incubation at several time points (0.5, 1, 4, 8, and 24 h).
(§5) Further, we decided to determine the influence of combinations of the studied flavonoids with cytostatics on ROS formation and the activity of caspases in SW620 cells. Combination effects of flavonoids and cytostatics were investigated at equipotent concentrations of the IC50 values for each compound. ROS production was monitored using a DCFH-DA assay at several time points (0.5, 1, 4, 8, and 24 h) during a 24-hour incubation. The activities of caspases-8, -9, and -3/7 were assessed using a luminescence assay kit at 4, 8, and 24 h of incubation.

[5] = tested on: caspases-3/7 in SW620 cells; assay: Caspase-Glo assay, effector caspases-3/7 activity; type: cell-based, human; conditions: for Caspase-3/7 activity, combination with 5-FU / Caspase-3/7 activity, combination with IRT / Caspase-3/7 activity, combination with OxPt: SW620, 24-hour incubation, compared to cytostatic alone; for Induction of caspases-3/7 activity: SW620, compound at IC50, 24-h exposure
Procedure: (§6) The activities of initiator caspases-8 and -9 and effector caspases-3/7 were assayed using Caspase-Glo Assays (Promega, Madison, USA). The SW620 cells (seeded in a […]) were cultivated in 12-well plates. […] The untreated control cells were incubated in medium containing only 0.1% DMSO. The lysates were collected into microtubes. Caspase-8, Caspase-9 and Caspases-3/7 reagents were prepared according to the manufacturer’s instructions. The lysates (25 μL in each well) were transferred into a white-walled 384-well-plate for the luminometer, at which point 25 μL of Caspase-8 or Caspase-9 or Caspases-3/7 reagents were added to each well. The plate was gently mixed for 30 seconds and then incubated for 30 minutes at room temperature. The luminescence was measured using the luminometer Infinite M200 (Tecan, Männedorf, Switzerland).
(§7) In order to determine whether the observed antiproliferative activity of the prenylflavonoids and naringenin could be explained at least in part by the induction of apoptosis, the activities of initiator (caspase-8 and caspase-9) as well as effector caspases (caspases-3/7) were assessed in the SW620 cells, which were exposed to the studied compounds for 4, 8, and 24 h, with the activities of the caspases measured using a luminescence assay.
as §5

caspase-8 in SW620 cells = assay: Caspase-Glo assay, initiator caspase-8 activity; type: cell-based, human
Procedure: as §6, §7, §5

caspase-9 in SW620 cells = assay: Caspase-Glo assay, initiator caspase-9 activity; type: cell-based, human
Procedure: as §6, §7, §5

[6] = tested on: colorectal cancer cell lines SW480, SW620 and CaCo-2; assay: Antiproliferative effect (NRU assay) across colorectal cancer cell lines; type: cell-based; conditions: Homo sapiens; proliferating colon cancer cells (SW480, SW620, CaCo-2), 72 h; read-out: IC50 range over cell lines
Source text: as §1, with “Neutral red uptake (NRU) assay was used to determine the number of viable cells after 72 h of exposition.” left out
In the NRU assay, the cells were cultured in 96-well plates (SW480 and SW620: 2500 cells/well; CaCo-2 cells: 200 cells/well) and exposed to the tested compounds for 72 h. […] The absorbance of solubilized dye was measured using the spectrophotometer Infinite M200 (Tecan, Männedorf, Switzerland) at 540 nm. […] The viabilities of treated cells were expressed as a percentage of untreated controls (100%).
All calculations were done using Microsoft Excel and GraphPad Prism 7.03 (GraphPad Software, La Jolla, CA, USA). All values were expressed as mean ± S.D. of a given number of experiments. […]

[7] = Homo sapiens, SW-620, SW620, 72 h of exposition
[8] = SW620, 4-h incubation, compared to cytostatic alone
[9] = SW620, 4-hour incubation, compared to cytostatic alone
[10] = SW620, combination with 5-FU, OxPt or IRT

Row | IC50 (SW480 cells; Homo sapiens) | IC50 (SW620 cells [1]; [7]) | IC50 [2] | IC50 [3] | SMILES | ROS production vs control (SW620 cells [4]) | Caspase-3/7 activity, combination with 5-FU [5] | further results
1 | 22.6 µM | 34.9 µM | – | – | O=c1[nH]cc(F)c(=O)[nH]1 [5-FU, 5-fluorouracil] | – | – | –
2 | 40.4 µM | 43.7 µM | > 100 µM | 47 µM | COc1cc(O)c(CC=C(C)C)c2c1C(=O)CC(c1ccc(O)cc1)O2 (centres unmarked) [IXH, isoxanthohumol] | strong pro-oxidative effect within the entire 24-hour incubation | marked increase | Caspase-3/7 activity, combination with IRT [5]: marked increase; Caspase-3/7 activity, combination with OxPt [5]: marked increase; Induction of caspases-3/7 activity ([5]; vs untreated control): 50.5%; Caspase-8 activity, combination with 5-FU (caspase-8 in SW620 cells; [8]): significantly increased; Caspase-8 activity, combination with OxPt (caspase-8 in SW620 cells; [8]): significantly increased; Caspase-9 activity, combination with 5-FU (caspase-9 in SW620 cells; [9]): more potent than the respective cytostatics alone
3 | > 200 µM | > 200 µM | – | – | O=C1C[C@@H](c2ccc(O)cc2)Oc2cc(O)cc(O)c21 [NAR, naringenin, reference compound] | only a mild pro-oxidative effect | – | ROS formation, combination with OxPt (SW620 cells [4]; SW620, flavonoid + OxPt at IC50 concentrations, all time points, vs control and flavonoid alone): feeble yet significant (p < 0.05) increase in ROS formation; ROS formation, combination with IRI (SW620 cells [4]; SW620, flavonoid + irinotecan at IC50 concentrations, all time points, vs control and flavonoid alone): feeble yet significant (p < 0.05) increase in ROS formation; Suppression of effector caspases (3/7) activity, combined with all the cytostatics ([5]; SW620, combination with 5-FU, OxPt or IRT, all time intervals): up to 61.4%; Inhibition of caspases-3/7 ([5]; SW620, compound alone, 4, 8 and 24 h, vs untreated control): up to 52.7%; Caspase-8 activity, combined with all the cytostatics (caspase-8 in SW620 cells; [10]): marked induction; Decrease in caspase-9 activity (caspase-9 in SW620 cells; SW620, 4 h of exposure, vs untreated control): 19.7%; Caspase-9 activity, combined with all the cytostatics (caspase-9 in SW620 cells; [10]): marked induction
4 | 1.7 µM | 25.4 µM | – | – | CCc1c2c(nc3ccc(OC(=O)N4CCC(N5CCCCC5)CC4)cc13)-c1cc3c(c(=O)n1C2)COC(=O)[C@]3(O)CC [IRT, irinotecan] | – | – | –

The remaining lines, values behind:

Row | SMILES | IC50 (SW480 cells; Homo sapiens) | IC50 (SW620 cells [1]; [7]) | IC50 [2] | IC50 [3] | ROS production vs control (SW620 cells [4]) | Caspase-3/7 activity, combination with 5-FU [5] | further results
5 | O=C1[O][Pt]2([NH][C@@H]3CCCC[C@H]3[NH]2)[O]C1=O [OxPt, oxaliplatin] | – | – | – | – | – | – | IC50 (SW480 cells): 1.1 µM; IC50 (SW620 cells [1]; SW620, 72 h of exposition): 1.9 µM
6 | CC(C)=CCc1c(O)cc2c(c1O)C(=O)C[C@@H](c1ccc(O)cc1)O2 [6-PN, 6-prenylnaringenin] | 14.8 µM | 13.7 µM | 61.9 µM | 24 µM | initially elevated ROS levels in cells and then surprisingly displayed a strong antioxidant effect at the later intervals | – | –
7 | COc1cc(O)c(CC=C(C)C)c(O)c1C(=O)/C=C/c1ccc(O)cc1 [XH, Xanthohumol] | 3.6 µM | 7.3 µM | 39.3 µM | 6.2 µM | strong pro-oxidative effect within the entire 24-hour incubation | marked increase | Caspase-3/7 activity, combination with IRT [5]: marked increase; IC50 [6]: 3.6 to 7.3 µM
8 | CC(C)=CCc1c(O)cc(O)c2c1O[C@H](c1ccc(O)cc1)CC2=O [8-PN, 8-prenylnaringenin] | 56.3 µM | 24.9 µM | > 100 µM | 48.9 µM | initially elevated ROS levels in cells and then surprisingly displayed a strong antioxidant effect at the later intervals | marked increase | Caspase-3/7 activity, combination with OxPt [5]: marked increase; Induction of caspases-3/7 activity ([5]; vs untreated control): 44.7%; Caspase-8 activity, combination with IRT (caspase-8 in SW620 cells; [8]): significantly increased; Caspase-8 activity, combination with OxPt (caspase-8 in SW620 cells; [8]): significantly increased; Caspase-9 activity, combination with IRT (caspase-9 in SW620 cells; [9]): more potent than the respective cytostatics alone; Caspase-9 activity, combination with OxPt (caspase-9 in SW620 cells; [9]): more potent than the respective cytostatics alone
